Results: patent US20210078917A1, “FUNGICIDAL FERTILIZER COMPOSITION COMPRISING POTASSIUM PHOSPHITE AND GAMMA-POLY-GLUTAMIC ACID” (JIANGSU HUIFENG BIO AGRICULTURE CO., LTD., priority 2018, published 2021)

Columns and labels:
[1] = test system: root rot, a soil-borne disease of soybeans; assay: Disease control test of soybean, root rot; type: in vivo; conditions: 4000 g effective ingredient per mu
Experimental: (§1) Fertilization method: The fertilizer was co-applied with other fertilizers. The yield, quality and control effect on disease on soybean were determined.

Chinese wolfberry = assay: Yield increase and quality test of Chinese wolfberry; type: in vivo, Chinese wolfberry "Ningqi No. 7"; conditions: 1.2 kg active ingredient per mu
Experimental: The test was carried out in a Chinese wolfberry planting test plot in Koluke Town, Delingha City, Qinghai Province. Chinese wolfberry plants were all three-year-old seedlings of variety “Ningqi No. 7” at a density of 270 plants/667 m^2. This experiment was designed such that different plots were arranged in order. […]. Fertilization method: It was applied together with other base fertilizers, by laying the fertilizer at the bottom of the planting pit, where the depth of the trench was 70 cm, the diameter of the pit was 80 cm, and the soil was mixed in and applied at the bottom when applying fertilizer. The yield, quality and control effect on disease on fresh Chinese wolfberry fruit were determined.

Disease (blight) = assay: Disease control test of pepper, blight; type: in vivo; conditions: 400 g per mu
Experimental: (§2) This fertilizer was applied on the basis of conventional fertilization in each treatment area. Fertilization method: The fertilizer was applied by spraying during the seedling stage of pepper. The yield, quality and control effect on disease on pepper were determined.

root rot of potatoes = assay: Disease control test of potatoes (field), root rot; type: in vivo, potato; conditions: amount 7000 g active ingredient/mu
Experimental: (§3) (1) Yield increase and disease control test of potatoes with fungicidal fertilizer composition of the present invention. This test was conducted in 2017 in Anding District, Dingxi City, Gansu Province. This area is a typical semi-arid rain-fed agricultural area. The soil type is loessial soil, with deep soil layers and uniform soil fertility. The previous crop is rape. The fertilizer of the present invention was totally applied as a base fertilizer at a time. […] Ridging after flat planting in wide and narrow rows was adopted. The wide row spacing was 60 cm, the narrow row spacing was 30 cm, the plant spacing was 30 cm, the sowing depth was 15 cm, and the plant density was 58,000 plants·hm^−2. Other field management was the same as that in large area of field. The number of large- and medium-sized potatoes ([…]) per plant was randomly determined, and the relative increase rate of large- and medium-sized potatoes was determined. The yield per mu and the relative increase rate of yield were determined. The crude starch content and increase rate of crude starch content were determined. The control effect on root rot of potatoes was also determined.

pepper = assay: Yield increase and quality test of pepper; type: in vivo; conditions: 400 g per mu, sprayed during the seedling stage
Experimental: as §2

stem rot of peanut = assay: Disease control test of peanut, stem rot; type: in vivo; conditions: 800 g per mu
Experimental: (§4) […]. Fertilization method: The fertilizer was applied three times by spraying during the flowering and fruiting period. The yield, quality and control effect on disease on peanut were determined.

potatoes = assay: Yield increase test of potatoes (field); type: in vivo, potato; conditions: amount 7000 g active ingredient/mu, base fertilizer
Experimental: as §3

peanut = assay: Yield increase and quality test of peanut; type: in vivo; conditions: 800 g per mu, sprayed three times during flowering and fruiting period
Experimental: as §4

soybean = assay: Yield increase test of soybean; type: in vivo; conditions: 4000 g effective ingredient per mu
Experimental: as §1

tomato = assay: Yield increase and quality test of tomato; type: in vivo; conditions: 600 g per mu, sprayed during the seedling stage
Experimental: […]. This fertilizer was applied on the basis of conventional fertilization in each treatment area. Fertilization method: The fertilizer was applied by spraying during the seedling stage of tomato. The yield, quality and control effect on disease on tomato were determined.

Disease (black fruit) = assay: Disease control test of Chinese wolfberry, black fruit; type: in vivo, Chinese wolfberry "Ningqi No. 7"; conditions: 1.2 kg active ingredient per mu
Experimental: The test was carried out in a Chinese wolfberry planting test plot in Koluke Town, Delingha City, Qinghai Province. Chinese wolfberry plants were all three-year-old seedlings of variety “Ningqi No. 7” at a density of 270 plants/667 m^2. This experiment was designed such that different plots were arranged in order. […] Fertilization method: It was applied together with other base fertilizers, by laying the fertilizer at the bottom of the planting pit, where the depth of the trench was 70 cm, the diameter of the pit was 80 cm, and the soil was mixed in and applied at the bottom when applying fertilizer. The yield, quality and control effect on disease on fresh Chinese wolfberry fruit were determined.

Disease (rot) = assay: Disease control test of tomato, rot; type: in vivo; conditions: 600 g per mu
Experimental: This fertilizer was applied on the basis of conventional fertilization in each treatment area. Fertilization method: The fertilizer was applied by spraying during the seedling stage of tomato. The yield, quality and control effect on disease on tomato were determined.

## Potassium phosphite
[1]; 12 days after application
  Control effect: 75.42%
  Disease index of root rot: 4.73
[1]; 35 days after application
  Control effect: 36.78%
  Disease index of root rot: 19.93
Chinese wolfberry
  Quality: Polysaccharide: 8.63%
  Quality: Total amino acid content: 7.41%
  Yield of fresh Chinese wolfberry fruit: Weight per 100 fruits: 126.8 g
  Yield of fresh Chinese wolfberry fruit: Yield: 2703.5 kg/mu
Disease (blight); 10 days after application
  Disease (blight): Control effect: 71.36%
  Disease (blight): Disease index: 3.00
Disease (blight); 42 days after application
  Disease (blight): Control effect: 31.52%
  Disease (blight): Disease index: 12.43
Root rot of potatoes; 10 days after application
  Control effect: 57.59%
  Disease index of root rot: 11.56
Root rot of potatoes; 30 days after application
  Control effect: 32.47%
  Disease index of root rot: 26.19
pepper
  Quality: Vitamin C: 24.4 mg/100 g
  Yield: Total yield: 3462 kg/mu
  Yield: Weight of single fruit: 51.8 g
Stem rot of peanut; 10 days after application
  Disease (Stem rot): Control effect: 78.64%
  Disease (Stem rot): Disease index: 3.28
Stem rot of peanut; 30 days after application
  Disease (Stem rot): Control effect: 39.36%
  Disease (Stem rot): Disease index: 9.31
potatoes
  Crude starch content: 16.8%
  Fresh weight of large- and medium-sized potatoes: 518.8 g/plant
  Increase rate of crude starch content: 6.3%
  Increase rate of large- and medium-sized potatoes: 14.8%
  Increase rate of yield: 12.4%
  Yield: 1446 kg/mu
peanut
  Quality: Linoleic acid: 44.61%
  Quality: Protein: 23.08%
  Yield: 335.7 kg/mu
  Yield: Seed yield: 70.3%
  Yield: Weight per 100 fruits: 122.3 g
soybean
  Branches: 18.5 count
  Increase rate (branches): 6.8%
  Increase rate (weight per 100 grains): 7.1%
  Increase rate (yield): 11.4%
  Weight per 100 grains: 26.50 g
soybean; per 667 M^2
  Yield (667 M^2): 196.7
tomato
  Quality: Amino acid: 695.31 mg/100 kg
  Quality: Vitamin C: 15.69 mg/100 g
  Yield: Total yield: 3626 kg/mu
  Yield: Weight of single fruit: 22.6 g
Disease (black fruit); 10 days after application
  Disease (black fruit): Control effect: 66.51%
  Disease (black fruit): Disease index: 5.13
Disease (black fruit); 30 days after application
  Disease (black fruit): Control effect: 45.24%
  Disease (black fruit): Disease index: 15.67
Disease (rot); 12 days after application
  Disease (rot): Control effect: 62.42%
  Disease (rot): Disease index: 5.95
Disease (rot); 45 days after application
  Disease (rot): Control effect: 34.52%
  Disease (rot): Disease index: 16.16
